Assays:
[1] = tested on: highly purified tubulin (tubulin heterodimer); experiment: Competitive binding test procedure, [3H]colchicine; set-up: species or system bovine; conditions: competitor 100 μM, [3H]colchicine 50 nM
Method: (§1) Medium is RPMI-1640 with L-glutamine, supplemented with 10% heat-inactivated fetal calf serum, 100 units/mL penicillin, and 100 μg/mL streptomycin (Gibco, Grand Island, N.Y.). Microtubule-associated protein (MAP)-rich tubulin, containing about 70% tubulin and 30% MAPs (#ML113), and highly purified tubulin (>99% pure, #TL238), both from bovine brain, are obtained from Cytoskeleton, Inc., Denver, Colo. PEM buffer (80 mM piperazine-N,N′-bis[2-ethanesulfonic acid], pH 6.9, 1 mM ethylene glycol-bis(β-aminoethyl ether)-N,N,N′,N′-tetraacetic acid, 1 mM magnesium chloride) and guanosine 5′-triphosphate (GTP) are also obtained from Cytoskeleton. [^3H]paclitaxel, specific activity 14.7 Ci/mmol, is purchased from Moravek Biochemicals (Brea, Calif.). [^3H]vinblastine, specific activity 9.60 Ci/mmol and MicroSpin G-50 columns are obtained from Amersham Biosciences (Piscataway, N.J.). […] Other reagents are obtained from Sigma (St. Louis, Mo.).
(§2) The binding of examples of this invention to highly purified tubulin is studied by competitive inhibition methods. […] To study possible competition at the taxane site, on the other hand, polymerized tubulin (microtubules) is used because paclitaxel binds preferentially to microtubules.
(§3) Highly purified tubulin is dissolved in PEM buffer without GTP and used at a final concentration of 1.0 to 1.3 mg/ml (10 to 13 μM). […] These solutions are incubated at 240 for 1 hr and then applied to MicroSpin G-50 columns which are centrifuged for 2 min at 3000 rpm in an Eppendorf 5415C microfuge. An aliquot of each column effluent (containing tubulin and bound radioligand) is mixed with scintillation fluid and counted in a liquid scintillation spectrometer. […] Quadruplicates are averaged, and the ability of the competitor to inhibit the binding of the radioligand is expressed as a percentage of control binding in the absence of any competitor.

[2] = tested on: polymerized tubulin (microtubules); experiment: Competitive binding test procedure, [3H]paclitaxel; set-up: species or system bovine; conditions: [3H]paclitaxel 2.1 μM
Method: as §1, §2
For competition with [^3H]paclitaxel, highly purified tubulin is dissolved in PEM buffer containing 0.75 M glutamate and 25 μM dideoxy-GTP; final protein concentration is 0.25 to 0.35 mg/mL (2.5 to 3.5 μM). These conditions foster the rapid formation of short, stable microtubule polymers (Hamel, E., del Campo, A. A., and Lin, C. M. Stability of tubulin polymers formed with dideoxyguanosine nucleotides in the presence and absence of microtubule-associated proteins. J. Biol. Chem., 259: 2501-2508, 1984). […] The reactions are then centrifuged at top speed in an Eppendorf 5415C microfuge for 20 min at room temperature in order to pellet the microtubule protein. Triplicate aliquots of each supernatant are mixed with scintillation fluid and counted in a liquid scintillation spectrometer. From the amount of radioactivity in the supernatants and the measured total starting radioactivity, the amount of [^3H]paclitaxel bound to pelleted microtubule protein is calculated. The ability of each competitor to inhibit radioligand binding to pelleted protein is expressed as a percent of controls without any competitor.

[3] = tested on: MAP-rich tubulin; experiment: Tubulin polymerization test procedure with MAP-rich tubulin; format: biochemical, bovine; conditions: MAP-rich tubulin with 1 mM GTP, compound 0.3 μM, at 20 min
Method: as §1
MAP-rich tubulin is dissolved in ice-cold PEM buffer containing 1 mM GTP (GPEM buffer) at a concentration of 1.3 mg/mL. The solution is centrifuged at top speed in an Eppendorf model 5415C microcentrifuge (Brinkmann Instruments, Westbury, N.Y.) for 10 min at 40 immediately before use. The tubulin solution is added to wells of a ½-area 96-well plate (Costar No. 3696, Corning, Inc., Corning, N.Y.) already containing the compounds of interest. Each compound is tested in duplicate at a final concentration of 0.3 μM in a volume of 110 μL per well. The final DMSO concentration in all wells is 0.3%. Control reactions, which receive compound solvent only, are done in quadruplicate. The plate is put in a SpectraMax Plus plate reader (Molecular Devices Corp. Sunnyvale, Calif.) thermostated at 240 and the absorbance of each well at 340 nm, a measure of the appearance of turbidity due to tubulin polymer formation, is determined every minute for 60 minutes. The absorbance at time 0 for each well is subtracted from each of the subsequent absorbance readings for that well, and then the duplicates are averaged.
In this assay, control reactions with MAP-rich tubulin show an S-shaped absorbance profile characterized by three phases: first, a lag phase during which no change in absorbance occurs; second, a polymerization phase in which absorbance increases; and third, a plateau phase in which absorbance has reached a maximum and little or no further change occurs. Polymerization enhancers such as paclitaxel and docetaxel shorten or eliminate the lag phase, increase the rate of the polymerization phase, and often increase the height of the plateau. […] This has been expressed quantitatively in Table 6 by dividing the mean A340 of each sample at 20 min by the mean A340 of the control at 20 min to give a fold enhancement over control. […]

[4] = tested on: pure tubulin; experiment: Tubulin polymerization test procedure with pure tubulin; format: biochemical, bovine; conditions: for polymerization of pure tubulin without GTP (in words): pure tubulin without added GTP
Method: as §1
The procedure with pure tubulin is similar except for the following changes. […] The supernatant after centrifugation is dispensed to a ½-area 96-well plate already containing compounds. Each compound is tested in duplicate at a final concentration of 24.3 μM. The plate reader μs thermostated at 35°.

[5] = tested on: highly purified tubulin (tubulin heterodimer); experiment: Competitive binding test procedure, [3H]vinblastine; set-up: species or system bovine; conditions: competitor 100 μM, [3H]vinblastine 100 nM
Method: as §1, §2, §3

Compound | [3H]Colchicine binding, Mean, percent of binding to control without competitor [1] | [3H]Paclitaxel binding, Mean, percent of binding to control without competitor ([2]; competitor unlabeled paclitaxel 5 μM) | A340 Compound / A340 Control (fold enhancement over control) [3] | polymerization of pure tubulin without GTP (in words) [4] | [3H]Vinblastine binding, Mean, percent of binding to control without competitor [5] | [3H]Colchicine binding, Mean, percent of binding to control without competitor ([1]; listed as example 6) | [3H]Paclitaxel binding, Mean, percent of binding to control without competitor ([2]; competitor 20 μM) | [3H]Paclitaxel binding, Mean, percent of binding to control without competitor ([2]; competitor 20 μM, listed as example 6) | A340 at 0 min ([4]; pure tubulin, no added GTP, compound 24.3 μM, 0 min) | A340 at 5 min ([4]; pure tubulin, no added GTP, compound 24.3 μM, 5 min) | A340 at 10 min ([4]; pure tubulin, no added GTP, compound 24.3 μM, 10 min) | A340 at 15 min ([4]; pure tubulin, no added GTP, compound 24.3 μM, 15 min) | A340 at 20 min ([4]; pure tubulin, no added GTP, compound 24.3 μM, 20 min)
CC(=O)O[C@H]1C(=O)[C@@]2(C)[C@H]([C@H](OC(=O)c3ccccc3)[C@]3(O)C[C@H](OC(=O)[C@H](O)[C@@H](NC(=O)c4ccccc4)c4ccccc4)C(C)=C1C3(C)C)[C@]1(OC(C)=O)CO[C@@H]1C[C@@H]2O [Paclitaxel, reference compound] | 93% | 35% | 1.8 | able to induce polymerization | 92% |  |  |  |  |  |  |  | 
CN(C)CCCOc1cc(F)c(-c2c(Cl)nc3nccn3c2C2CCCCCC2)c(F)c1 [Example 6, 3-[4-(7-Chloro-5-cycloheptylimidazo[1,2-a]pyrimidin-6-yl)-3,5-difluorophenoxy]-N,N-dimethylpropan-1-amine] | 84% |  | 1.7 | induces polymerization | 17% | does not inhibit | 92% | does not inhibit | 0 | 0.15 | 0.19 | 0.19 | 0.19

Source: patent publication US7285555B2, “6-aryl-7-halo-imidazo[1,2-a]pyrimidines as anticancer agents” (Wyeth Holdings Corporation, priority 2003, dated 2007)
